Reference: article PMC4687525, “Drosophila Avoids Parasitoids by Sensing Their Semiochemicals via a Dedicated Olfactory Circuit” (PLoS Biology, 2015)

Biological target: T1, Or85f (Drosophila melanogaster, UniProt Q9VHE6)
T1 construct: full-length receptor, UAS-Or85f transgene expressed in mutant ab3A neuron lacking Or22a (delta-halo empty neuron); endogenous Orco; with Odorant receptor coreceptor
T1 sequence (Q9VHE6 1-392): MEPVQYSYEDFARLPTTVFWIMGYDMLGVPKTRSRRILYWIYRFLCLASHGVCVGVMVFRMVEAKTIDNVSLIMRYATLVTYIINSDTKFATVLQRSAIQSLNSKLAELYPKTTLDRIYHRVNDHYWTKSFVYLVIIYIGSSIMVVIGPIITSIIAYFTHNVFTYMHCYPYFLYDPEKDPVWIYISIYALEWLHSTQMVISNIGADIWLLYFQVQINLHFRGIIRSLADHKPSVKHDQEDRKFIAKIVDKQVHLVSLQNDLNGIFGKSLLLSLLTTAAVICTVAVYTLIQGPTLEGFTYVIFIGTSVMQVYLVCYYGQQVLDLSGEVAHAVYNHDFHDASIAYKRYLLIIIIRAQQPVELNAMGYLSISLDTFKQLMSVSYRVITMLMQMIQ
T1 sequence (Q9VNB5 1-486 partner): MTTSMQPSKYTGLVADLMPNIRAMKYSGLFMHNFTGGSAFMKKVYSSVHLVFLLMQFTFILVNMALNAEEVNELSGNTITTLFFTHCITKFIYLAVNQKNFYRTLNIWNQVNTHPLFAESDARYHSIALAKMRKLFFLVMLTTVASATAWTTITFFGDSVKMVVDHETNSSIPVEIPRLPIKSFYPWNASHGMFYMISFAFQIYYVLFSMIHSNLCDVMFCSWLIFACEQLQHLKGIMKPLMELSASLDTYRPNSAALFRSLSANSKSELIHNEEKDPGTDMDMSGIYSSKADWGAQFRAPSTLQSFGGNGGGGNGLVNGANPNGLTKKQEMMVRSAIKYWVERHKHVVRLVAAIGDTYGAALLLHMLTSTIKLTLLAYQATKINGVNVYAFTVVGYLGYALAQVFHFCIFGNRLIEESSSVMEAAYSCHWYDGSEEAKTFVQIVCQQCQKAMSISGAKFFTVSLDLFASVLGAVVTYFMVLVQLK
Test: GC-coupled single sensillum recording, empty neuron (ab3A)
Format: cell-based
Settings: agonist

[1] = reference sample described as racemic

Row | SMILES | GC-coupled single sensillum recording, empty neuron (ab3A) [1] | GC-coupled single sensillum recording, empty neuron (ab3A)
1 | CC1=CO[C@@H](O)[C@@H]2[C@@H]1CC[C@@H]2C (racemic) [1R4aS7S7aS-nepetalactol] | 1S4aR7R7aS, 1R4aS7S7aS-nepetalactol and their enantiomers) activated OSNs expressing Or85f | 
2 | CC1=CO[C@H](O)[C@H]2[C@H](C)CC[C@@H]12 (racemic) [1S4aR7R7aS-nepetalactol] | 1S4aR7R7aS, 1R4aS7S7aS-nepetalactol and their enantiomers) activated OSNs expressing Or85f | 
3 | Cc1cncc2c1CC[C@H]2C [(R)-actinidine] |  | When we tested OSNs misexpressing Or85f, they became activated by (R)-actinidine and nepetalactol
